Molecules are shown by their SMILES.

Experimental findings from patent US7858618B2, “Compounds” (Boehringer Ingelheim International GmbH, priority 2006, dated 2010) are described below.

The target of this test is T1, hBK1 receptor (Homo sapiens, UniProt P46663).
T1 construct: expressed in transfected cells; host or cells: CHO cells
T1 sequence (P46663 1-353): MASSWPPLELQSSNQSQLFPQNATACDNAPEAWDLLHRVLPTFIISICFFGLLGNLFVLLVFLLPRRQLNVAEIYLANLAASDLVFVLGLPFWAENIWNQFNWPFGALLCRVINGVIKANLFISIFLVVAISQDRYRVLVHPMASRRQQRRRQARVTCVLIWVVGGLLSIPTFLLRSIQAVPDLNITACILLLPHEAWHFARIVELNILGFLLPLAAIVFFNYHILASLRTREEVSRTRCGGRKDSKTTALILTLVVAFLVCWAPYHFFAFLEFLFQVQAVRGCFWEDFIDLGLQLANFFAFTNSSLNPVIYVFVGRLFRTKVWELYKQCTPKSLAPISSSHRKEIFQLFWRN
The test is described as follows: hBK1 receptor binding (displacement of [3H]-kallidin (DesArg10, Leu9) from membranes of CHO cells expressing the hBK1 receptor). The following applies: CHO cell membranes expressing hBK1 receptor; 0.5 to 1.0 nM [3H]-kallidin (DesArg10, Leu9); 60 minutes at room temperature. The procedure:
Description of the Method of hBK1 Receptor Binding
CHO cells expressing the hBK1 receptor are cultivated in Dulbecco's modified medium. The medium from confluent cultures is removed and the cells are washed with PBS buffer, scraped off and isolated by centrifugation. The cells are then homogenized in suspension and the homogenate is centrifuged and resuspended. The protein content is determined and the membrane preparation obtained in this manner is then frozen at −80° C.
After thawing, 200 μl of the homogenate (50 to 100 μg of proteins/assay) are incubated at room temperature with 0.5 to 1.0 nM of kallidin (DesArg10, Leu9), [3,4-prolyl-3,43H(N)] and increasing concentrations of the test substance in a total volume of 250 μl for 60 minutes. The incubation is terminated by rapid filtration through GF/B glass fibre filters which had been pretreated with polyethyleneimine (0.3%). The protein-bound radioactivity is measured in a TopCount NXT. Non-specific binding is defined as radioactivity bound in the presence of 1.0 μM of kallidin (DesArg10, Leu9), [3,4-prolyl-3,43H(N)]. The concentration/binding curve is analysed using a computer-assisted nonlinear curve fitting. The Ki which corresponds to the test substance is determined using the data obtained in this manner. […]

Consider `CCC(CC)NCc1ccc(CN(C)C(=O)COCCN(C)S(=O)(=O)c2c(C)cc(OC)cc2C)cc1` [(77)], for which the Ki was determined as 8.7 nM. To `COc1cc(C)c(S(=O)(=O)N(C)CCOCC(=O)N(C)Cc2ccc(N3CCCC(N(C)C)C3)cc2C)c(C)c1` (centres unmarked) [(381)] belongs 8.1 nM.

As for `COc1cc(C)c(S(=O)(=O)N(C)CCOCC(=O)N(C)Cc2ccc3c(c2)nc(N)n3C)c(C)c1` [(369)], the Ki was found to be 3.8 nM. To `COc1cc(C)c(S(=O)(=O)N(C)CCOCC(=O)N(C)[C@H]2CC[C@@H](CCN3CCCC3)CC2)c(C)c1` [(435)] belongs 1.5 nM; to `COc1cc(C)c(S(=O)(=O)N(C)CCOCC(=O)N(C)C2CCN(C(=O)CCN3CCCC3)CC2)c(C)c1` [(630)], 5.5 nM. To `COc1cc(C)c(S(=O)(=O)N(C)CCOCC(=O)N(C)Cc2ccc(NCCN(C)C)cc2)c(C)c1` [(325)] belongs 0.94 nM; to `COc1cc(C)c(S(=O)(=O)N(C)CCOCC(=O)N(C)[C@H]2CC[C@@H](CN3CCC(N(C)C)C3)CC2)c(C)c1` (some centres unmarked) [(444)], 6.9 nM; to `COc1cc(C)c(S(=O)(=O)N(C)CCOCC(=O)N(C)Cc2ccc(N3CCC(N4CCCC4)C3)cc2Cl)c(C)c1` (centres unmarked) [(445)], 5.6 nM. To `COc1cc(C)c(S(=O)(=O)N(C)CCOCC(=O)N(C)Cc2ccc(OCCN3CCCC3)cc2)c(C)c1` [(358)] belongs 3.5 nM; to `COc1cc(C)c(S(=O)(=O)N(C)CCOCC(=O)N(C)CC2CCN(c3ccnc(C)c3)CC2)c(C)c1` [(53)], 2.4 nM; to `COc1cc(C)c(S(=O)(=O)N(C)CCOCC(=O)N(C)Cc2ccc(N3CC[C@@H](N(C)C)C3)cc2)c(C)c1` [(385)], 6.4 nM. Take `COc1cc(C)c(S(=O)(=O)N(C)CCOCC(=O)N(C)Cc2ccc(-c3cn(C)cn3)cc2)c(C)c1` [(66)]: affinity was put at a Ki of 4.6 nM.

Take `COc1cc(C)c(S(=O)(=O)N(C)CCC(=O)Nc2ccc(N3CCC(CCN(C)C)CC3)c(Cl)c2)c(C)c1` [(182)]: the Ki came out at 4.8 nM. To `COc1cc(C)c(S(=O)(=O)N(C)CCOCC(=O)N(C)[C@H]2CC[C@@H](CN3CCC[C@H](N(C)C)C3)CC2)c(C)c1` [(473)] belongs 1.8 nM; to `COc1cc(C)c(S(=O)(=O)N(C)CCOCC(=O)N(C)[C@H]2CC[C@@H](CN3CC[C@@H](N(C)C)C3)CC2)c(C)c1` [(441)], 4.6 nM. To `COc1cc(C)c(S(=O)(=O)N(C)CCOCC(=O)N(C)Cc2ccc(N(C)CCN(C)C)cc2C)c(C)c1` [(389)] belongs 3.7 nM; to `COc1cc(C)c(S(=O)(=O)N(C)CCOCC(=O)N(C)C[C@]2(C)CC[C@H](CN3CCC3)C2(C)C)c(C)c1` [(582)], 9.3 nM. Regarding `COc1cc(C)c(S(=O)(=O)N(C)CCOCC(=O)N(C)C[C@H]2CC[C@@H](N3CCN(C)CC3)CC2)c(C)c1` [(584)], the Ki was 9 nM.

Take `COc1cc(C)c(S(=O)(=O)N(C)CCOCC(=O)N(C)Cc2ccc(CN3CCCC3)cc2C)c(C)c1` [(338)]: the Ki is 1.11 nM. On to `COc1cc(C)c(S(=O)(=O)N(C)CCOCC(=O)N(C)[C@@H]2CCN(C3CCN(C4CCC4)CC3)C2)c(C)c1` [(577)], for which the Ki was determined as 0.34 nM.

`COc1cc(C)c(S(=O)(=O)N(C)CCOCC(=O)N(C)C[C@H]2CC[C@H](NCCN3CCCC3)CC2)c(C)c1` [(591)] yielded a Ki of 1.9 nM. Take `COc1cc(C)c(S(=O)(=O)N(C)CCC(=O)NC2CCN(c3ncc(CN4CCCC4)cc3Cl)CC2)c(C)c1` [(216)]: the Ki amounted to 4.9 nM. To `COc1cc(C)c(S(=O)(=O)N(C)CCOCC(=O)N(C)[C@H]2CC[C@@H](CCN(C)CC3CC3)CC2)c(C)c1` [(463)] belongs 2 nM; to `COc1cc(C)c(S(=O)(=O)N(C)CCOCC(=O)N(C)Cc2ccc(-c3cn4c(n3)CCCC4)cc2)c(C)c1` [(55)], 0.7 nM. To `COc1cc(C)c(S(=O)(=O)N(C)CCOCC(=O)N(C)Cc2ccc(CNC(C)(C)C)cc2)c(C)c1` [(78)] belongs 5.8 nM; to `COc1cc(C)c(S(=O)(=O)N(C)CCOCC(=O)N(C)C[C@@H]2CCN(CCCN3CCCC3)C2)c(C)c1` [(576)], 0.85 nM.
